Measured values taken from patent publication US20240209028A1, “CNP COMPOUNDS” (priority 2022, published 2024).
Starred links: 1 amine or outer side, 2 acyl side, 3 side chain; linkers in the order of their positions; H or OH if unused. Positions of bridges follow the written chain, without caps; N, C: chain ends. Residues, ends and D or L forms follow the SMILES beside them. *: point of attachment. C18 diacid = O=C(O)CCCCCCCCCCCCCCCCC(=O)*; γGlu = O=C(O)[C@H](CCC(=O)[*:2])N[*:1]; AEEA = NCCOCCOCC(=O)O

Molecular target: T1, human natriuretic peptide receptor 2 (hNPR2) (Homo sapiens, UniProt P20594)
T1 construct: expressed in transfected cells; host or cells: HEK293 (ATCC CRL-1573), clone 35, co-transfected with pGloSensor-42F
T1 sequence (P20594 23-1047): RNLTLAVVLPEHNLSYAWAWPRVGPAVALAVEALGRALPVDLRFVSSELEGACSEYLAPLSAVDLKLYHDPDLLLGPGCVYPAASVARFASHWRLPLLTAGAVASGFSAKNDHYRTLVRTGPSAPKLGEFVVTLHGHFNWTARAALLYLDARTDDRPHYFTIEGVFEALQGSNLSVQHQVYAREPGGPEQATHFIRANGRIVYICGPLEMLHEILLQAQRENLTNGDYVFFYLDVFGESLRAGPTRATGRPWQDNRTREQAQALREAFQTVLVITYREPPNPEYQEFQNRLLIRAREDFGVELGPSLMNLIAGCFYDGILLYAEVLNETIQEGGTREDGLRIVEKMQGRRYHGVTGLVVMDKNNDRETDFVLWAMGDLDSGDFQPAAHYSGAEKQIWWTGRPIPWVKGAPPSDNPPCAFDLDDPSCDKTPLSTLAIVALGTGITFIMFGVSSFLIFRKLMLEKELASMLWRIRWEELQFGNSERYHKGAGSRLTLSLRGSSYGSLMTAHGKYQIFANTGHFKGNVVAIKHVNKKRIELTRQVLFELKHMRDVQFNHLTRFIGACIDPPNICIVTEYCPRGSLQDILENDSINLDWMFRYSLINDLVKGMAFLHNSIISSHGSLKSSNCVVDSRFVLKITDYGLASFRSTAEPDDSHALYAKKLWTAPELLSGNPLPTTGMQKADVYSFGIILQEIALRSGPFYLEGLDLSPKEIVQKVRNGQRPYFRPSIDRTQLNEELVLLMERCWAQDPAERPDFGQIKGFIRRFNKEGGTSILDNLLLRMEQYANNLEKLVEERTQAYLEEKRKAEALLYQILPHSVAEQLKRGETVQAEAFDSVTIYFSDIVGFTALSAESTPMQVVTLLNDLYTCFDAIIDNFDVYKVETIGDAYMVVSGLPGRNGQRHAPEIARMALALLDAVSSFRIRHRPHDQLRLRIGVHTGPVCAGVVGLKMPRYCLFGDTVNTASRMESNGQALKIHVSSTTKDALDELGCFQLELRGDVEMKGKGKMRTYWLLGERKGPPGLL
Assay: In vitro hNPR2 activity assay (cGMP GloSensor reporter, HEK293)
Format: cell-based
Settings: potency relative to CNP22 (0065)
Method in brief: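 Potency is the EC50 from a four-parameter logistic fit, also expressed relative to the in-plate CNP22 control (×100), with at least two replicates. Compounds (ten concentrations, […], HSA-free diluent with 1% OVA, 0.01% Tween20) were incubated 30 min at 37 °C on HEK293 cells co-expressing hNPR2 and a GloSensor cGMP luciferase. Luminescence detected with Bright-Glo.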

Row | Structure (SMILES) | hNPR2 0% HSA. [EC50% rel CNP]
1 | CC[C@H](C)[C@@H]1NC(=O)[C@H](CCCNC(=N)N)NC(=O)[C@H](CC(=O)O)NC(=O)[C@H](CC(C)C)NC(=O)[C@@H]2CCCN2C(=O)[C@H](CC(C)C)NC(=O)CNC(=O)[C@H](Cc2ccccc2)NC(=O)[C@@H](NC(=O)CNC(=O)[C@H](CCC(N)=O)NC(=O)[C@H](CO)NC(=O)[C@H](CC(C)C)NC(=O)CNC(=O)[C@H](CCCCN)NC(=O)[C@H](CCCCN)NC(=O)[C@H](CCC(N)=O)NC(=O)[C@H](C)NC(=O)CNC(=O)[C@H](CCCCN)NC(=O)[C@H](Cc2ccc(O)cc2)NC(=O)[C@H](CCCCN)NC(=O)[C@H](CCCNC(=N)N)NC(=O)[C@H](C)NC(=O)COCCOCCNC(=O)COCCOCCNC(=O)COCCOCCNC(=O)CC[C@H](NC(=O)CC[C@H](NC(=O)CC[C@H](NC(=O)CC[C@H](NC(=O)CC[C@H](NC(=O)CCCCCCCCCCCCCCCCC(=O)O)C(=O)O)C(=O)O)C(=O)O)C(=O)O)C(=O)O)CSSC[C@@H](C(=O)O)NC(=O)CNC(=O)[C@H](CC(C)C)NC(=O)CNC(=O)[C@H](CO)NC(=O)[C@H](CC(C)C)NC(=O)[C@H](CO)NC(=O)CNC1=O [compound 1452] ({C18 diacid-γGlu-γGlu-γGlu-γGlu-γGlu-AEEA-AEEA-AEEA}-ARKYKGAQKKGLSQGCFGLPLDRIGSLSGLGC-OH; disulfide 16-32) | 57.6%
2 | CC[C@H](C)[C@@H]1NC(=O)[C@H](CCCNC(=N)N)NC(=O)[C@H](CC(=O)O)NC(=O)[C@H](CC(C)C)NC(=O)[C@@H]2CCCN2C(=O)[C@H](CC(C)C)NC(=O)CNC(=O)[C@H](Cc2ccccc2)NC(=O)[C@@H](NC(=O)CNC(=O)[C@H](CCC(N)=O)NC(=O)[C@H](CO)NC(=O)[C@H](CC(C)C)NC(=O)CNC(=O)[C@H](CCCCN)NC(=O)[C@H](CCCCN)NC(=O)[C@H](CCC(N)=O)NC(=O)[C@H](C)NC(=O)CNC(=O)[C@H](CCCCN)NC(=O)[C@H](Cc2ccc(O)cc2)NC(=O)[C@H](CCCCN)NC(=O)[C@H](CCCNC(=N)N)NC(=O)[C@H](C)NC(=O)COCCOCCNC(=O)COCCOCCNC(=O)COCCOCCNC(=O)COCCOCCNC(=O)CC[C@H](NC(=O)CC[C@H](NC(=O)CC[C@H](NC(=O)CC[C@H](NC(=O)CCCCCCCCCCCCCCCCC(=O)O)C(=O)O)C(=O)O)C(=O)O)C(=O)O)CSSC[C@@H](C(=O)O)NC(=O)CNC(=O)[C@H](CC(C)C)NC(=O)CNC(=O)[C@H](CO)NC(=O)[C@H](CC(C)C)NC(=O)[C@H](CO)NC(=O)CNC1=O [compound 1454] ({C18 diacid-γGlu-γGlu-γGlu-γGlu-AEEA-AEEA-AEEA-AEEA}-ARKYKGAQKKGLSQGCFGLPLDRIGSLSGLGC-OH; disulfide 16-32; C-terminus assumed) | 63.6%
3 | CC[C@H](C)[C@@H]1NC(=O)[C@H](CCCNC(=N)N)NC(=O)[C@H](CC(=O)O)NC(=O)[C@H](CC(C)C)NC(=O)[C@@H]2CCCN2C(=O)[C@H](CC(C)C)NC(=O)CNC(=O)[C@H](Cc2ccccc2)NC(=O)[C@@H](NC(=O)CNC(=O)[C@H](CCC(N)=O)NC(=O)[C@H](CO)NC(=O)[C@H](CC(C)C)NC(=O)CNC(=O)[C@H](CCCCN)NC(=O)[C@H](CCCCN)NC(=O)[C@H](CCC(N)=O)NC(=O)[C@H](C)NC(=O)CNC(=O)[C@H](CCCCN)NC(=O)[C@H](Cc2ccc(O)cc2)NC(=O)[C@H](CCCCN)NC(=O)[C@H](CCCNC(=N)N)NC(=O)[C@H](C)NC(=O)COCCOCCNC(=O)COCCOCCNC(=O)COCCOCCNC(=O)CC[C@H](NC(=O)CC[C@H](NC(=O)CC[C@H](NC(=O)CC[C@H](NC(=O)CCCCCCCCCCCCCCCCC(=O)O)C(=O)O)C(=O)O)C(=O)O)C(=O)O)CSSC[C@@H](C(=O)O)NC(=O)CNC(=O)[C@H](CC(C)C)NC(=O)CNC(=O)[C@H](CO)NC(=O)[C@H](CC(C)C)NC(=O)[C@H](CO)NC(=O)CNC1=O [compound 1455] ({C18 diacid-γGlu-γGlu-γGlu-γGlu-AEEA-AEEA-AEEA}-ARKYKGAQKKGLSQGCFGLPLDRIGSLSGLGC-OH; disulfide 16-32) | 43.4%
